Here are results for seven molecules from patent US20100240652A1, “Pyridine Derivatives as Sodium Channel Modulators” (Pfizer Inc, priority 2006, published 2010).

This assay concerns the target T1, Human NaV1.8 (Homo sapiens, UniProt Q9Y5Y9).
T1 construct: expressed in transfected cells
Nature of the assay: VIPR assay for NaV1.8 compounds (FRET membrane potential). The assay is classed as cell-based. As to conditions: Human NaV1.8 HEK293 expressing cell line, channels held open with deltamethrin. From the text: The ability of the pyridine derivatives of the formula (I) to inhibit the NaV1.8 channel may be measured using the assay described below.
VIPR Assay for NaV1.8 compounds
This screen is used to determine the effects of compounds on tetrodotoxin-resistant (TTX-R) sodium channels in Human NaV1.8— (HEK293) expressing cell line, utilising the technology of Aurora's fluorescent Voltage/Ion Probe Reader (VIPR). This experiment is based on FRET (Fluorescence Resonance Energy Transfer) and uses two fluorescent molecules. The first molecule, Oxonol (DiSBAC2(3)), is a highly fluorescent, negatively charged, hydrophobic ion that “senses” the trans-membrane electrical potential. In response to changes in membrane potential, it can rapidly redistribute between two binding sites on opposite sides of the plasma membrane. The voltage dependent redistribution is transduced into a ratiometric fluorescent readout via a second fluorescent molecule (Coumarin (CC2-DMPE)) that binds specifically to one face of the plasma membrane and functions as a FRET partner to the mobile voltage-sensing ion. To enable the assay to work, the channels have to be pharmacologically held in the open state. This is achieved by treating the cells with either deltamethrin (for NaV1.8) or veratridine (for the SHSY-5Y assay for TTX-S channels).
Human NaV1.8 cells are grown in T225 flasks, in a 5% CO2 humidified incubator to about 70% confluence. Media composition consists of DMEM/F-12, 10% FCS and 300 μg/ml Geneticine. They are split using cell dissociation fluid 1:5 to 1:20, depending on scheduling needs, and grown for 3-4 days before the next split.
Plate-out HEK-NaV1.8 cells (100 μl per well) into poly-D-lysine coated plates prior to experimentation as follows:—24 hours @ 3.5×10^4 cells/well (3.5×10^5 cells/ml) or using the technology of Select.
1. Equilibrate buffers at room temperature for 2 hours or at 37° C. for 30 minutes prior to experimentation. 2. Prepare Coumarin dye (see below) and store in dark. Prime the plate washer with Na^+ Free buffer and wash cells twice, Note: Plate washer deposits ˜30 μl residual buffer per well. Add 100 μL Coumarin (CC2-DMPE) solution (see below) to cells and incubate for 45 minutes at room temperature avoiding bright light. 3. Prepare Oxonol (DiSBAC2(3)) dye (see below): 4. Aspirate off Coumarin solution from the cells by washing in Na^+ Free buffer. 5. Add 30 μl compound then add 30 μl Oxonol solution to the cells and incubate for 45 minutes at room temperature in the dark (total well volume ˜90 μl). 6. Once the incubation is complete, the cells are ready to be assayed using the VIPR for sodium addback membrane potential.
The data was analyzed and reported as normalised ratios of intensities measured in the 460 nm and 580 nm channels. The process of calculating these ratios was performed as follows. An additional plate contained control solution with the same DisBAC2(3) concentrations as used in the cell plates, however no cells were included in the background plate. Intensity values at each wavelength were averaged for sample points 5-7 (initial) and 44-49 (final). These averages were subtracted from intensity values averaged over the same time periods in all assay wells. The initial ratio obtained from samples 3-8 (Ri) and the final ratio obtained from samples 45-50 (Rf) are defined as: […]
Final data are normalised to the starting ratio of each well and reported as Rf/Ri. This analysis is performed using a computerised specific programme designed for VIPR generated data. Rf/Ri ratio values are plotted using Excel Labstats (curve fit) or analysed via ECADA to determine an IC50 value for each compound.

pIC50: −log10 of the molar value.

T1 sequence (Q9Y5Y9 whole entry): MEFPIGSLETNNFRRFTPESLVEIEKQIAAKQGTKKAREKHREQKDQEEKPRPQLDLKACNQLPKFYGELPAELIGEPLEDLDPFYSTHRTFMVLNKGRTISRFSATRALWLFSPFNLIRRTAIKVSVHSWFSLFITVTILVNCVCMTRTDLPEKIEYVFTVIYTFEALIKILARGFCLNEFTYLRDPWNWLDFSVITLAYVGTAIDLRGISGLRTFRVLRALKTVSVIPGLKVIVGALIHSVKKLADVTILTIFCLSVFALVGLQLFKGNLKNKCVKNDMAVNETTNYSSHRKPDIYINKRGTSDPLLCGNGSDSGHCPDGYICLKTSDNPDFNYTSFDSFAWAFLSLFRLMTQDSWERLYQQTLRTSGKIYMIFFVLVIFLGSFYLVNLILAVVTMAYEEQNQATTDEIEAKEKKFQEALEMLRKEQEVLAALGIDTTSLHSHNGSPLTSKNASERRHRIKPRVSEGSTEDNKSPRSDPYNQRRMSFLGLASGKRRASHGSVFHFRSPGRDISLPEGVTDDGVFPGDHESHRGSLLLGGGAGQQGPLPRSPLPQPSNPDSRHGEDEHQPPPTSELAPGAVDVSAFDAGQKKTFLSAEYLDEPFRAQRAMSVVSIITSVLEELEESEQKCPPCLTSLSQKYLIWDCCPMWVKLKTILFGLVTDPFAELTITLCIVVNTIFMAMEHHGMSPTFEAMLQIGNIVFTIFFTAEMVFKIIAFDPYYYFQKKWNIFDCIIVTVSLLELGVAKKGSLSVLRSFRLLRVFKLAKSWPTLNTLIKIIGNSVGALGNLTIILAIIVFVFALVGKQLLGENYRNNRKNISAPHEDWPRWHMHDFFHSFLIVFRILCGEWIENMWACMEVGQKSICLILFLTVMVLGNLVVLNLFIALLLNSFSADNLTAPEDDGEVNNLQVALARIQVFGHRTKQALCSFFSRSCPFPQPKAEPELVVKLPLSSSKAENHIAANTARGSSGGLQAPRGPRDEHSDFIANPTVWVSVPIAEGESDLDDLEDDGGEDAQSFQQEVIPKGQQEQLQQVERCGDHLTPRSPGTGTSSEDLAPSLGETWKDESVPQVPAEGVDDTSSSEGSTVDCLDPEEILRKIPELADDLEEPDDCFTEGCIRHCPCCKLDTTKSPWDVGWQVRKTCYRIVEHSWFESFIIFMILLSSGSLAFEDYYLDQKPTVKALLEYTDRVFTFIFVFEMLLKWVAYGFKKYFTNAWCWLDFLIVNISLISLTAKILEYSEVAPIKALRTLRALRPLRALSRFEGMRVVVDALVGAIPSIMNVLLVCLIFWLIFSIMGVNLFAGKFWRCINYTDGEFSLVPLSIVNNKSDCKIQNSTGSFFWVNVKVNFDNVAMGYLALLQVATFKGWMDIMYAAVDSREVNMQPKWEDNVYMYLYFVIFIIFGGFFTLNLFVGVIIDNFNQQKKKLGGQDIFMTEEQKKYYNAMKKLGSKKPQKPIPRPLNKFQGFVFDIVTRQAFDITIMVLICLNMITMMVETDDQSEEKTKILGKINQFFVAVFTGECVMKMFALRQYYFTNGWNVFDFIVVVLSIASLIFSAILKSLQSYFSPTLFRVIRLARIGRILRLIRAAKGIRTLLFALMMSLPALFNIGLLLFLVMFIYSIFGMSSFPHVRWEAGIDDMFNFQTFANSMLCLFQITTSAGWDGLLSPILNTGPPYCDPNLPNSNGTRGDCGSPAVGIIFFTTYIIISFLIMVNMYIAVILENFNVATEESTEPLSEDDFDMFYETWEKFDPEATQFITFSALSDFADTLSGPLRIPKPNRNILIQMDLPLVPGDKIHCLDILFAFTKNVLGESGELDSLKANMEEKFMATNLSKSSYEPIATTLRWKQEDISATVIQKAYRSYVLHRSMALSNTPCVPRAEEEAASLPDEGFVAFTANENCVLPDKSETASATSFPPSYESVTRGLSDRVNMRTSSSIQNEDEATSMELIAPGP

With `C/N=C(/c1ccc(-c2cc(Cl)cc(Cl)c2Cl)c(N)n1)N1CCOCC1` [Example 4, 6-(Methylimino-morpholin-4-yl-methyl)-3-(2,3,5-trichloro-phenyl)-pyridin-2-ylamine], the pIC50 (in general, the IC50 on a negative log10 scale, so that one unit is a factor of ten) is 5.34.

For the molecule `C/N=C(\NC)c1ccc(-c2cc(Cl)cc(Cl)c2Cl)c(N)n1` [Example 3, 6-Amino-N,N′-dimethyl-5-(2,3,5-trichloro-phenyl)-pyridine-2-carboxamidine], the pIC50 was 5.74. The value for `CNC(=S)c1ccc(-c2cc(Cl)cc(Cl)c2Cl)c(N)n1` [Example 1, 6-Amino-5-(2,3,5-trichloro-phenyl)-pyridine-2-carbothioic acid methylamide] was 5.53; that for `C/N=C(\NCC(F)(F)F)c1ccc(-c2cc(Cl)cc(Cl)c2Cl)c(N)n1` [Example 6, 6-Amino-N-methyl-5-(2,3,5-trichloro-phenyl)-N′-(2,2,2-trifluoro-ethyl)-pyridine-2-carboxamidine] was 5.88; that for `CC/N=C(\NCC)c1ccc(-c2cc(Cl)cc(Cl)c2Cl)c(N)n1` [Example 5, 6-Amino-N,N′-diethyl-5-(2,3,5-trichloro-phenyl)-pyridine-2-carboxamidine] was 5.53.

Turning to `CNC(=N)c1ccc(-c2cc(Cl)cc(Cl)c2Cl)c(N)n1` [Example 7, 6-Amino-N-methyl-5-(2,3,5-trichloro-phenyl)-pyridine-2-carboxamidine], the pIC50 was 5.62.

For `CN/C(=N\C#N)c1ccc(-c2cc(Cl)cc(Cl)c2Cl)c(N)n1` [Example 2, 6-Amino-N′-cyano-N-methyl-5-(2,3,5-trichlorophenyl)pyridine-2-carboximidamide], the pIC50 was 5.79.
